In patent US11230547B2, “Purine inhibitors of human phosphatidylinositol 3-kinase delta” (Merck Sharp & Dohme Corp., priority 2017, dated 2022):

Legend:
PI3Kdelta = PI3Kdelta (Homo sapiens (Human), UniProt O00329); assay: HTRF PI3K biochemical assay, delta isoform; conditions: 0.3 nM enzyme, 100 uM ATP, 5 uM PIP2, form screened per table
How it was run: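 PI3Kδ at 0.3 nM preincubated 15 min with compound, then reacted 1 h at room temperature with 100 uM ATP and 5 uM PIP2. PIP3 product detected by competitive HTRF displacing biotin-PIP3 from GST-GRP1 PH domain, so signal falls with activity. 10-point 3-fold dose response.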

PI3Kalpha = PI3Kalpha (Homo sapiens (Human), UniProt P42336); assay: HTRF PI3K biochemical assay, alpha isoform (selectivity versus delta); conditions: relative ratio PI3K-alpha IC50 value / PI3K-delta IC50 value
Chain of PI3Kalpha (P42336 whole entry, the tested form may be a part, canonical isoform): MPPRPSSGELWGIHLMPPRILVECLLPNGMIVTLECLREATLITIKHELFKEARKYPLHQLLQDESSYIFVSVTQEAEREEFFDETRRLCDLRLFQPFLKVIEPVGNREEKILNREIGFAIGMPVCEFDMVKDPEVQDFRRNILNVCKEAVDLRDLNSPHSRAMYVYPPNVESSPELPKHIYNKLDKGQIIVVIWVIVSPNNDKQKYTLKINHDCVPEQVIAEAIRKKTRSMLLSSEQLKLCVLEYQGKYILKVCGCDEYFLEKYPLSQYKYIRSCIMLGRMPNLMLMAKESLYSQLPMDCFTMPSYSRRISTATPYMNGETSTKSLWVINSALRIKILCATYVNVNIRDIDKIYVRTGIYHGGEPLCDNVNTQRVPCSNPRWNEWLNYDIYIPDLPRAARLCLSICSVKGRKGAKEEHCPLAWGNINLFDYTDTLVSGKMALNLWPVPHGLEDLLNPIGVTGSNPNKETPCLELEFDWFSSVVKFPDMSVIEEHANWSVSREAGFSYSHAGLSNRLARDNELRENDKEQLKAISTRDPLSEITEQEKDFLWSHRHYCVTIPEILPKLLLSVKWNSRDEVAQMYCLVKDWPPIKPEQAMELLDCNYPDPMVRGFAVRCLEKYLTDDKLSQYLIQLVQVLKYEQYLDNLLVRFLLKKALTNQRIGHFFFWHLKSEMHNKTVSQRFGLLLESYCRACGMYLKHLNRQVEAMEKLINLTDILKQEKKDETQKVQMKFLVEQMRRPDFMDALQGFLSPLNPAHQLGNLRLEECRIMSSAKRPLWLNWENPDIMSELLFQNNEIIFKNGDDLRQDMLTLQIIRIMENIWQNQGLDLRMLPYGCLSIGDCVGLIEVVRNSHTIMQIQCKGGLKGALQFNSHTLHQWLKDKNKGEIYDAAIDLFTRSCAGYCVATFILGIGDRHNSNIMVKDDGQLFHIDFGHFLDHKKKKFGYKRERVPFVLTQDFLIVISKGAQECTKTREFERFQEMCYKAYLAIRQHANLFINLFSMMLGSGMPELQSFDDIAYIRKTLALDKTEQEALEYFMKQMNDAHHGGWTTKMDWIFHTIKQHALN
Chain of PI3Kalpha (P27986 whole entry partner, the tested form may be a part, canonical isoform): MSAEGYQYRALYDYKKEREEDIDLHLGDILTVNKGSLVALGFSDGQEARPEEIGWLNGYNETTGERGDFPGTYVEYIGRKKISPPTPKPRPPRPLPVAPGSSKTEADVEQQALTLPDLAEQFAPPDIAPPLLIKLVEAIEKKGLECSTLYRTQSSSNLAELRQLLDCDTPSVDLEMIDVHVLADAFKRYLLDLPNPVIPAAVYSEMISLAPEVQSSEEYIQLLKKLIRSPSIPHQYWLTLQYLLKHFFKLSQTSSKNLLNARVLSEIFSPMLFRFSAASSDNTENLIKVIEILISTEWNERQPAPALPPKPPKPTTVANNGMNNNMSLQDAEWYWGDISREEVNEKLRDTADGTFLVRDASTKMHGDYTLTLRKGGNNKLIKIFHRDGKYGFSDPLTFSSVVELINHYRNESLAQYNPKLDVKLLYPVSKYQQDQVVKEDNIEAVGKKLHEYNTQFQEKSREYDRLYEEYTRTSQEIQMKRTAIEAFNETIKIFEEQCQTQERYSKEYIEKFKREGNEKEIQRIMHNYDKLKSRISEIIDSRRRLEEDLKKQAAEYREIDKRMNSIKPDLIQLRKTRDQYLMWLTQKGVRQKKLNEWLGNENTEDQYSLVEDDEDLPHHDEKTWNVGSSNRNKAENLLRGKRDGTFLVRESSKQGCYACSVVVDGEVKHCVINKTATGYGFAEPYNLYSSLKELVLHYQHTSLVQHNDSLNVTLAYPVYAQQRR
How it was run: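 Recombinant human PI3Kα (0.5 nM) preincubated 15 min with compound, then reacted 1 h at room temperature with 100 uM ATP and 5 uM PIP2. PIP3 formation detected by HTRF competition with biotin-PIP3 for GST-GRP1 PH domain (Eu/APC, 665/620 nm); product lowers signal.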

Chain of PI3Kdelta (O00329 whole entry, the tested form may be a part, canonical isoform): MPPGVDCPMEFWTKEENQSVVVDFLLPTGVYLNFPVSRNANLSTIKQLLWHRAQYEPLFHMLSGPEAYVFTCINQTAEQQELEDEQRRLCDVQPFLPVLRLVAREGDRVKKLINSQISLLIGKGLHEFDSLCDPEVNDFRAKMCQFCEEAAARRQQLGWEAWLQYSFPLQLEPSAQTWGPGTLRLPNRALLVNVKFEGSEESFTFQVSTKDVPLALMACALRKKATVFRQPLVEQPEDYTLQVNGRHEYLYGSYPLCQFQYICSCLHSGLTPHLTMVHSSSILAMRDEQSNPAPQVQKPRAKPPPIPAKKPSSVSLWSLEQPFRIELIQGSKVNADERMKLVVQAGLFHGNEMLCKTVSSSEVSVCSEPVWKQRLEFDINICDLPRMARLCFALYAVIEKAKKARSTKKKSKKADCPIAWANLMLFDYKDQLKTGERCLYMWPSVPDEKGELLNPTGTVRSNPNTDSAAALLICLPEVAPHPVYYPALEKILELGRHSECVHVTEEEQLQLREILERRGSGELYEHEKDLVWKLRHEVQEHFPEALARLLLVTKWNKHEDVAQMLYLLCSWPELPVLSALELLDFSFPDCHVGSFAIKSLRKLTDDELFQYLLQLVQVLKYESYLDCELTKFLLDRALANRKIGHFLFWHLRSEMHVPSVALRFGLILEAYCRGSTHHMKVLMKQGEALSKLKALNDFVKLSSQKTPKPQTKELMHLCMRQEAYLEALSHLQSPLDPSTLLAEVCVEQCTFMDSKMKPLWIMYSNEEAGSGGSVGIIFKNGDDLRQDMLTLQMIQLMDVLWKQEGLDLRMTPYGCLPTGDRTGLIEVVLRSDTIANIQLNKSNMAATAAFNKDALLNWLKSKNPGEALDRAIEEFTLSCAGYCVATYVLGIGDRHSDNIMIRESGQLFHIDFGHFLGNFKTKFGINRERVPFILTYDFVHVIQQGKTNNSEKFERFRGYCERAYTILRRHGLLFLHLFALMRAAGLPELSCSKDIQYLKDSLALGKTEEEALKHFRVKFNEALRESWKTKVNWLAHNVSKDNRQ
Chain of PI3Kdelta (P27986 whole entry partner, the tested form may be a part, canonical isoform): as the sequence (P27986 whole entry partner, the tested form may be a part, canonical isoform) above

Structure (SMILES)	IC50 (PI3Kdelta) [nM]	Selectivity versus PI3Kalpha (PI3Kalpha)
CC(C)c1cnc(-c2cnc(N3CCN(C(=O)C4CC4)[C@H](C)C3)nc2-c2cnn(C)c2)o1 [Compound 5-5, 2-[(3R)-4-(cyclopropylcarbonyl)-3-methylpiperazin-1-yl]-5-[5-(1-methylethyl)-1,3-oxazol-2-yl]-4-(1-methyl-1H-pyrazol-4-yl)pyrimidine]	410	>10
CC(C)C[C@@H]1CN(c2nc(-c3cnn(C)c3)ncc2C#N)CCN1C(=O)C1CC1 [Compound 5-6, 4-[(3R)-4-(cyclopropylcarbonyl)-3-(2-methylpropyl)piperazin-1-yl]-2-(1-methyl-1H-pyrazol-4-yl)pyrimidine-5-carbonitrile]	190	>10
Cn1cc(-c2ncc(C#N)c(N3CCN(C(=O)C4CC4)[C@H](CO)C3)n2)cn1 [Compound 5-7, 4-[(3S)-4-(cyclopropylcarbonyl)-3-(hydroxymethyl)piperazin-1-yl]-2-(1-methyl-1H-pyrazol-4-yl)pyrimidine-5-carbonitrile]	760	>10
CC(C)C#Cc1cnc(N2CCN(C(=O)C3CC3)[C@H](C)C2)nc1-c1cnn(C)c1 [Compound 5-8, 2-[(3R)-4-(cyclopropylcarbonyl)-3-methylpiperazin-1-yl]-5-(3-methylbut-1-yn-1-yl)-4-(1-methyl-1H-pyrazol-4-yl)pyrimidine]	12	>10
C#Cc1cnc(N2CCN(C(=O)C3CC3)[C@H](C)C2)nc1-c1cnn(C)c1 [Compound 5-9, 2-[(3R)-4-(cyclopropylcarbonyl)-3-methylpiperazin-1-yl]-5-ethynyl-4-(1-methyl-1H-pyrazol-4-yl)pyrimidine]	50	>10
CSc1cnc(N2CCN(C(=O)C3CC3)[C@H](C)C2)nc1-c1cnn(C)c1 [Compound 5-10, 2-[(3R)-4-(cyclopropylcarbonyl)-3-methylpiperazin-1-yl]-4-(1-methyl-1H-pyrazol-4-yl)-5-(methylsulfanyl)pyrimidine]	340	>10
C[C@@H]1CN(c2ncc(C(F)F)c(-c3cnn(C)c3)n2)CCN1C(=O)C1CC1 [Compound 5-11, 2-[(3R)-4-(cyclopropylcarbonyl)-3-methylpiperazin-1-yl]-5-(difluoromethyl)-4-(1-methyl-1H-pyrazol-4-yl)pyrimidine]	370	>10
CCOC(=O)c1cnc(N2CCN(C(=O)C3CC3)[C@H](C)C2)nc1-c1cnn(C)c1 [Compound 5-12, ethyl 2-[(3R)-4-(cyclopropylcarbonyl)-3-methylpiperazin-1-yl]-4-(1-methyl-1H-pyrazol-4-yl)pyrimidine-5-carboxylate]	180	>10
C[C@@H]1CN(c2nc(-c3cnn(C)c3)ncc2Cl)CCN1C(=O)C1CC1 [Compound 5-13, 5-chloro-4-[(3R)-4-(cyclopropylcarbonyl)-3-methylpiperazin-1-yl]-2-(1-methyl-1H-pyrazol-4-yl)pyrimidine]	620	>10

Other lines, results leading:

IC50 (PI3Kdelta) [nM]	Selectivity versus PI3Kalpha (PI3Kalpha)	Structure (SMILES)
130	>10	C[C@@H]1CN(c2nc(-c3cnn(C)c3)nc(N)c2C#N)CCN1C(=O)C1CC1 [Compound 6-1, 4-amino-6-[(3R)-4-(cyclopropylcarbonyl)-3-methylpiperazin-1-yl]-2-(1-methyl-1H-pyrazol-4-yl)pyrimidine-5-carbonitrile]
5.6	>10	CC(C)NC(=O)Nc1nc(-c2cnn(C)c2)nc(N2CCN(C(=O)C3CC3)[C@H](C)C2)c1C#N [Compound 6-2, 1-{5-cyano-6-[(3R)-4-(cyclopropylcarbonyl)-3-methylpiperazin-1-yl]-2-(1-methyl-1H-pyrazol-4-yl)pyrimidin-4-yl}-3-(1-methylethyl)urea]
480	>10	CC(=O)Nc1nc(-c2cnn(C)c2)nc(N2CCN(C(=O)C3CC3)[C@H](C)C2)c1C#N [Compound 6-3, N-{5-cyano-6-[(3R)-4-(cyclopropylcarbonyl)-3-methylpiperazin-1-yl]-2-(1-methyl-1H-pyrazol-4-yl)pyrimidin-4-yl}acetamide]
8.3	>10	C[C@@H]1CN(c2nc(-c3cnn(C)c3)nc(NCC(F)(F)F)c2C#N)CCN1C(=O)C1CC1 [Compound 6-4, 4-[(3R)-4-(cyclopropylcarbonyl)-3-methylpiperazin-1-yl]-2-(1-methyl-1H-pyrazol-4-yl)-6-[(2,2,2-trifluoroethyl)amino]pyrimidine-5-carbonitrile]
140	>10	C[C@@H]1CN(c2nc(-c3cnn(C)c3)nc(Cl)c2C#N)CCN1C(=O)C1CC1 [Compound 6-5, 4-chloro-6-[(3R)-4-(cyclopropylcarbonyl)-3-methylpiperazin-1-yl]-2-(1-methyl-1H-pyrazol-4-yl)pyrimidine-5-carbonitrile]
220	>10	CCc1nc(-c2cnn(C)c2)nc(N2CCN(C(=O)C3CC3)[C@H](C)C2)c1C#N [Compound 6-6, 4-[(3R)-4-(cyclopropylcarbonyl)-3-methylpiperazin-1-yl]-6-ethyl-2-(1-methyl-1H-pyrazol-4-yl)pyrimidine-5-carbonitrile]
80	>10	C[C@@H]1CN(c2nc(-c3cnn(C)c3)nc(NC3CCC3)c2C#N)CCN1C(=O)C1CC1 [Compound 6-7, 4-(cyclobutylamino)-6-[(3R)-4-(cyclopropylcarbonyl)-3-methylpiperazin-1-yl]-2-(1-methyl-1H-pyrazol-4-yl)pyrimidine-5-carbonitrile]
19	>10	C[C@@H]1CN(c2nc(-c3cnn(C)c3)nc(Nc3ccccc3)c2C#N)CCN1C(=O)C1CC1 [Compound 6-8, 4-[(3R)-4-(cyclopropylcarbonyl)-3-methylpiperazin-1-yl]-2-(1-methyl-1H-pyrazol-4-yl)-6-(phenylamino)pyrimidine-5-carbonitrile]
30	>10	C[C@@H]1CN(c2nc(Cl)c(C#N)c(-c3cnn(C)c3)n2)CCN1C(=O)C1CC1 [Compound 6-9, 4-chloro-2-[(3R)-4-(cyclopropylcarbonyl)-3-methylpiperazin-1-yl]-6-(1-methyl-1H-pyrazol-4-yl)pyrimidine-5-carbonitrile]
180	>10	Cc1nc(-c2cnn(C)c2)nc(N2CCN(C(=O)C3CC3)[C@H](C)C2)c1C#N [Compound 6-10, 4-[(3R)-4-(cyclopropylcarbonyl)-3-methylpiperazin-1-yl]-6-methyl-2-(1-methyl-1H-pyrazol-4-yl)pyrimidine-5-carbonitrile]
160	>10	C[C@@H]1CN(c2nc(-c3cnn(C)c3CCC(F)(F)F)ncc2C#N)CCN1C(=O)C1CC1 [Compound 6-11, 4-[(3R)-4-(cyclopropylcarbonyl)-3-methylpiperazin-1-yl]-2-[1-methyl-5-(3,3,3-trifluoropropyl)-1H-pyrazol-4-yl]pyrimidine-5-carbonitrile]
58	>10	COCCc1nc(N2CCN(C(=O)C3CC3)[C@H](C)C2)nc(-c2cnn(C)c2)c1C#N [Compound 6-12, 2-[(3R)-4-(cyclopropylcarbonyl)-3-methylpiperazin-1-yl]-4-(2-methoxyethyl)-6-(1-methyl-1H-pyrazol-4-yl)pyrimidine-5-carbonitrile]
180	>10	C[C@@H]1CN(c2ncc(C#N)c(-c3cn(C)nc3C#N)n2)CCN1C(=O)C1CC1 [Compound 6-13, 4-(3-cyano-1-methyl-1H-pyrazol-4-yl)-2-[(3R)-4-(cyclopropylcarbonyl)-3-methylpiperazin-1-yl]pyrimidine-5-carbonitrile]
21	>10	C[C@@H]1CN(c2ncc(C#N)c(-c3cn(C)nc3N)n2)CCN1C(=O)C1CC1 [Compound 6-14, 4-(3-amino-1-methyl-1H-pyrazol-4-yl)-2-[(3R)-4-(cyclopropylcarbonyl)-3-methylpiperazin-1-yl]pyrimidine-5-carbonitrile]
83	>10	C[C@@H]1CN(c2nc(-c3cnn4c3CCC4)ncc2C#N)CCN1C(=O)C1CC1 [Compound 6-15, 4-[(3R)-4-(cyclopropylcarbonyl)-3-methylpiperazin-1-yl]-2-(5,6-dihydro-4H-pyrrolo[1,2-b]pyrazol-3-yl)pyrimidine-5-carbonitrile]
16	>10	C[C@@H]1CN(c2nc(-c3cnn(C)c3)nc(NC(=O)NCC(F)(F)F)c2C#N)CCN1C(=O)C1CC1 [Compound 6-16, 1-{5-cyano-6-[(3R)-4-(cyclopropylcarbonyl)-3-methylpiperazin-1-yl]-2-(1-methyl-1H-pyrazol-4-yl)pyrimidin-4-yl}-3-(2,2,2-trifluoroethyl)urea]
5	>10	C[C@@H]1CN(c2nc(-c3cnn(C)c3)nc(NC(=O)NC3CCC3)c2C#N)CCN1C(=O)C1CC1 [Compound 6-17, 1-{5-cyano-6-[(3R)-4-(cyclopropylcarbonyl)-3-methylpiperazin-1-yl]-2-(1-methyl-1H-pyrazol-4-yl)pyrimidin-4-yl}-3-cyclobutylurea]
49	>10	C[C@@H]1CN(c2nc(-c3cnn(C)c3)nc(NCC3COC3)c2C#N)CCN1C(=O)C1CC1 [Compound 6-18, 4-[(3R)-4-(cyclopropylcarbonyl)-3-methylpiperazin-1-yl]-2-(1-methyl-1H-pyrazol-4-yl)-6-[(oxetan-3-ylmethyl)amino]pyrimidine-5-carbonitrile]
